Experimental data published in US4835160A, “Derivatives of pyridoindole, having anti-tumor properties” (Sanofi, priority 1986, dated 1989).

Legend:
[1] = in vivo; set-up: species or system CDF1 hybrid mice; settings: mouse, ip
Excerpt: The compounds of the invention benefit from a good tolerance and a weak toxicity.
Thus the administration, to healthy CDF1 hybrid mice, in a single injection by intraperitoneal route, of the compounds under test, has enabled it to be established that the product is perfectly tolerated at a high dosage since the survival rate of the animals of the experiment was 100 out of 100 thirteen days after administration.

[2] = in vivo; set-up: species or system female CDF1 hybrid mice; settings: mouse, iv
Method: In addition the administration, to healthy female CDF1 hybrid mice, in a single injection by intravenous route with a perfusor, lasting 4 minutes, of the compounds under test in solution in physiological serum at a rate of 0.1 ml of solution per 10 g weight of the animals has enabled it to be established that the compounds are also well tolerated at a high dosage in these conditions.

[3] = tested on: leukemia P 388; assay: Test of leukemia P 388; IP/IP, D1-5; assay type: in vivo, CDF1 hybrid mice; settings: D1-D5; for Number of survivors: day D30; for T/C %: survival time
Summary of the method: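 CDF1 hybrid mice received 10^6 P 388 cells intraperitoneally, then compound in distilled water by intraperitoneal route daily D1-D5, 10 mice per group, 5-fluorouracil as positive control. Activity judged as T/C survival time versus untreated controls, survivors counted at D30; T/C ≤85% or day 5 minus day 1 weight change ≤ −4 g counted as toxic.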

[4] = tested on: leukemia P388; assay: Test for leukemia P388, IP/IP, D1; assay type: in vivo, CDF1 hybrid mice; settings: for Number of survivors: day D30; for T/C %: survival time
Method: The antitumour activity was tested in vivo on various tumours inoculated in various ways according to the following general protocol:
All the male or female mice are inoculated on day D0 with a known quantity of viable tumour cells for ascitic tumours or with a known tumour fragment for solid tumours.
They are then distributed into various groups. Each group, corresponding to the animals treated by the product under test, is made up of 10 mice. The product under test is dissolved in distilled water and it is administered n times (Dx-Dy), n, y, and x varying according to the protocol chosen, at the rate of 0.1 ml of solution per 10 g by weight of mice treated and at specific doses for each protocol.
The "negative control" group, corresponding to the animals which are not treated by the product, contains 2√N animals, N being equal to or greater than the total number of mice treated by the product in the same experiment.
Finally, the tests can also be carried out at the same time as the study of a group called "positive control", of ten animals, which is treated by a molecule, known for its antitumour activity and which can vary according to the protocol chosen, in the same conditions as the groups treated by the product under test.
The antitumour activity is evaluated, in the case of ascitic tumours, by considering the increase in the survival time of the animals treated in comparison to that of the animals in the "negative control" group, according to the formula: [formula]
Also, a product is considered as toxic at the dose studied when this T/C value is equal to or less than 85%. In addition, a product is also considered as toxic at the dose studied when the weight variation, expressed in grams and calculated by the formula: […]
The tests are carried out with CDF1 hybrid mice inoculated by intraperitoneal route with 10^6 leukemia cells from the P 388 line. The compound under test is administered for 5 successive days (D1-D5) by intraperitoneal route. The positive control for the test is 5-fluorouracile which is administered in the same conditions. The number of surviving animals is evaluated on day D30.
(b) Test for Leukemia P388, IP/IP, D1 (GERAN et al. Cancer chemother., 1972, 2, 07-57).
The test is carried out according to the preceding protocol, the compound under test being administered only on day D1.

[5] = tested on: melanoma B 16; assay: Test for melanoma B 16; assay type: in vivo, BDF1 hybrid mice; settings: D1-D9; for Number of survivors: day D60; for T/C %: survival time
Summary of the method: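 BDF1 mice inoculated i.p. with 0.5 ml B16 melanoma homogenate (1 g tumour in 10 ml physiological serum); compound given i.p. daily D1–D9, Cis-platine positive control under same conditions. Surviving animals counted on D60; activity as survival increase vs untreated controls (T/C), toxicity if T/C ≤85%.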

With `Cc1cnc(NCCCN(C)C)c2c1[nH]c1ccc(O)cc12` [Derivative No. 10, 1-(3-dimethylaminopropylamino)-8-hydroxy-4-methyl-5H-pyrido[4,3-b]indole] the survival at 312 h ([1]; 100 mg/kg) was 100%, the survival at 192 h ([2]; 25 mg/kg) was 100% and the survival at 192 h ([2]; 40 mg/kg) was 40%. The “Median day of survival” value ([3]; 0.625 mg/kg IP) was 15.75 days, the “Variation by weight (g)” value ([3]; 0.625 mg/kg IP) was “+4.1 g” and the Number of survivors ([3]; 0.625 mg/kg IP) was 0/10. For the same compound, the T/C % ([3]; 0.625 mg/kg IP) was 139%, the “Median day of survival” value ([3]; 1.25 mg/kg IP) was 17.0 days and the “Variation by weight (g)” value ([3]; 1.25 mg/kg IP) was “+3.3 g”. For the same compound, the Number of survivors ([3]; 1.25 mg/kg IP) was 0/10, the T/C % ([3]; 1.25 mg/kg IP) was 150% and the “Median day of survival” value ([3]; 2.5 mg/kg IP) was 16.4 days. The “Variation by weight (g)” value ([3]; 2.5 mg/kg IP) was “+3.2 g”, the Number of survivors ([3]; 2.5 mg/kg IP) was 0/10 and the T/C % ([3]; 2.5 mg/kg IP) was 145%. For the same compound, the “Median day of survival” value ([3]; 5 mg/kg IP) was 21.0 days, the “Variation by weight (g)” value ([3]; 5 mg/kg IP) was “+2.0 g” and the Number of survivors ([3]; 5 mg/kg IP) was 1/10. For the same compound, the T/C % ([3]; 5 mg/kg IP) was 186%, the “Median day of survival” value ([3]; 10 mg/kg IP) was 16.75 days and the “Variation by weight (g)” value ([3]; 10 mg/kg IP) was “+1.8 g”. For the same compound, the Number of survivors ([3]; 10 mg/kg IP) was 0/10, the T/C % ([3]; 10 mg/kg IP) was 148% and the “Median day of survival” value ([3]; 20 mg/kg IP) was 7.8 days. The “Variation by weight” value ([3]; 20 mg/kg IP) was -0.4 g, the Number of survivors ([3]; 20 mg/kg IP) was 0/10 and the T/C % ([3]; 20 mg/kg IP) was 69%. The “Median day of survival” value ([4]; 5 mg/kg IP) was 15.3 days, the “Variation by weight” value ([4]; 5 mg/kg IP) was -0.1 g and the Number of survivors ([4]; 5 mg/kg IP) was 0/10. For the same compound, the T/C % ([4]; 5 mg/kg IP) was 139%, the “Median day of survival” value ([4]; 10 mg/kg IP) was 15.25 days and the “Variation by weight (g)” value ([4]; 10 mg/kg IP) was “+0.3 g”. For the same compound, the Number of survivors ([4]; 10 mg/kg IP) was 0/10, the T/C % ([4]; 10 mg/kg IP) was 139% and the “Median day of survival” value ([4]; 20 mg/kg IP) was 15.6 days. For the same compound, the “Variation by weight” value ([4]; 20 mg/kg IP) was -0.8 g, the Number of survivors ([4]; 20 mg/kg IP) was 0/10 and the T/C % ([4]; 20 mg/kg IP) was 142%. For the same compound, the “Median day of survival” value ([4]; 40 mg/kg IP) was 15.3 days, the “Variation by weight” value ([4]; 40 mg/kg IP) was -1.4 g and the Number of survivors ([4]; 40 mg/kg IP) was 0/10. For the same compound, the T/C % ([4]; 40 mg/kg IP) was 139%, the “Median day of survival” value ([5]; 1.25 mg/kg IP) was 32.0 days and the “Variation by weight (g)” value ([5]; 1.25 mg/kg IP) was “+2.8 g”. The Number of survivors ([5]; 1.25 mg/kg IP) was 0/10, the T/C % ([5]; 1.25 mg/kg IP) was 116% and the “Median day of survival” value ([5]; 2.5 mg/kg IP) was 38.75 days. The “Variation by weight (g)” value ([5]; 2.5 mg/kg IP) was “+1.8 g”, the Number of survivors ([5]; 2.5 mg/kg IP) was 0/10 and the T/C % ([5]; 2.5 mg/kg IP) was 141%. The “Median day of survival” value ([5]; 5 mg/kg IP) was 44.0 days, the “Variation by weight (g)” value ([5]; 5 mg/kg IP) was “+2.4 g” and the Number of survivors ([5]; 5 mg/kg IP) was 0/10. For the same compound, the T/C % ([5]; 5 mg/kg IP) was 160%, the “Median day of survival” value ([5]; 10 mg/kg IP) was 11.7 days and the “Variation by weight (g)” value ([5]; 10 mg/kg IP) was “+0.5 g”. For the same compound, the Number of survivors ([5]; 10 mg/kg IP) was 0/10 and the T/C % ([5]; 10 mg/kg IP) was 42%.

For `Cc1cnc(NCCCN(C)C)c2c3cc(O)ccc3n(C)c12` [Derivative No. 14, 4,5-dimethyl 1(3-dimethylaminopropylamino)-8-hydroxy-5H-pyrido[4,3-b]indole], the survival at 312 h ([1]; 25 mg/kg) was 100%, the survival at 192 h ([2]; 50 mg/kg) was 100% and the “Median day of survival” value ([3]; 2.5 mg/kg IP) was 19.25 days. For the same compound, the “Variation by weight (g)” value ([3]; 2.5 mg/kg IP) was “+0.9 g”, the Number of survivors ([3]; 2.5 mg/kg IP) was 1/10 and the T/C % ([3]; 2.5 mg/kg IP) was 166%. For the same compound, the “Median day of survival” value ([3]; 5 mg/kg IP) was 22 days, the “Variation by weight” value ([3]; 5 mg/kg IP) was -1.0 g and the Number of survivors ([3]; 5 mg/kg IP) was 3/10. The T/C % ([3]; 5 mg/kg IP) was 190%, the “Median day of survival” value ([3]; 10 mg/kg IP) was 11.75 days and the “Variation by weight” value ([3]; 10 mg/kg IP) was -1.7 g. The Number of survivors ([3]; 10 mg/kg IP) was 0/10, the T/C % ([3]; 10 mg/kg IP) was 102% and the “Median day of survival” value ([3]; 20 mg/kg IP) was 7.4 days. For the same compound, the “Variation by weight” value ([3]; 20 mg/kg IP) was -4.4 g, the Number of survivors ([3]; 20 mg/kg IP) was 0/10 and the T/C % ([3]; 20 mg/kg IP) was 64%. For the same compound, the “Median day of survival” value ([4]; 5 mg/kg IP) was 19.75 days, the “Variation by weight” value ([4]; 5 mg/kg IP) was -1.2 g and the Number of survivors ([4]; 5 mg/kg IP) was 0/10. For the same compound, the T/C % ([4]; 5 mg/kg IP) was 173%, the “Median day of survival” value ([4]; 10 mg/kg IP) was 19.0 days and the “Variation by weight” value ([4]; 10 mg/kg IP) was -1.4 g. For the same compound, the Number of survivors ([4]; 10 mg/kg IP) was 1/10, the T/C % ([4]; 10 mg/kg IP) was 167% and the “Median day of survival” value ([4]; 20 mg/kg IP) was 18.75 days. For the same compound, the “Variation by weight” value ([4]; 20 mg/kg IP) was -2.5 g, the Number of survivors ([4]; 20 mg/kg IP) was 1/10 and the T/C % ([4]; 20 mg/kg IP) was 164%. For the same compound, the “Median day of survival” value ([5]; 1.25 mg/kg IP) was 29.75 days, the “Variation by weight (g)” value ([5]; 1.25 mg/kg IP) was “+1.0 g” and the Number of survivors ([5]; 1.25 mg/kg IP) was 0/10. The T/C % ([5]; 1.25 mg/kg IP) was 123%, the “Median day of survival” value ([5]; 2.5 mg/kg IP) was 32.6 days and the “Variation by weight (g)” value ([5]; 2.5 mg/kg IP) was “+0.1 g”. The Number of survivors ([5]; 2.5 mg/kg IP) was 0/10, the T/C % ([5]; 2.5 mg/kg IP) was 134% and the “Median day of survival” value ([5]; 5 mg/kg IP) was 50.0 days. For the same compound, the “Variation by weight” value ([5]; 5 mg/kg IP) was -0.2 g, the Number of survivors ([5]; 5 mg/kg IP) was 1/10 and the T/C % ([5]; 5 mg/kg IP) was 206%. The “Median day of survival” value ([5]; 10 mg/kg IP) was 11.75 days, the “Variation by weight” value ([5]; 10 mg/kg IP) was -1.9 g and the Number of survivors ([5]; 10 mg/kg IP) was 0/10. It also gave a T/C % ([5]; 10 mg/kg IP) of 48%.
